Measurements as given in patent publication US8198273B2, “Compounds and methods for kinase modulation, and indications therefor” (Plexxikon Inc., priority 2009, dated 2012).
pIC50: −log10 of the molar value.

What was measured:
[1] = system: A375 melanoma cells (B-Raf V600E); test: A375 cell growth inhibition (ATPlite); assay type: cell-based; conditions: Homo sapiens, A-375, 72 h; A375, 3 days incubation
How it was run: (§1)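 ATPlite luminescence, taken as a cell-number measure, gave IC50 values after a 3-day 37° C, 5% CO2 incubation. Compounds were tested as 8-point threefold titrations, highest final concentration 10 μM, added to cells seeded the day before.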

CYP2C19 = CYP2C19 (Homo sapiens, UniProt P33261); test: CYP2C19 inhibition (fluorescent substrate); assay type: in vitro ADME; conditions: CYP2C19, CEC substrate; read-out: Cyp IC50 2C19
How it was run: (§2)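 First, 100 mM DMSO stocks are diluted into acetonitrile, then twofold through co-factor mix for 10 points. Next, mixtures are preincubated 10 min at 37 °C.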

CYP1A2 = target: T1, CYP1A2 (Homo sapiens, UniProt P05177); test: CYP1A2 inhibition (fluorescent substrate); assay type: in vitro ADME; conditions: CYP1A2, CEC substrate; read-out: Cyp IC50 1A2
T1 sequence (P05177 1-516): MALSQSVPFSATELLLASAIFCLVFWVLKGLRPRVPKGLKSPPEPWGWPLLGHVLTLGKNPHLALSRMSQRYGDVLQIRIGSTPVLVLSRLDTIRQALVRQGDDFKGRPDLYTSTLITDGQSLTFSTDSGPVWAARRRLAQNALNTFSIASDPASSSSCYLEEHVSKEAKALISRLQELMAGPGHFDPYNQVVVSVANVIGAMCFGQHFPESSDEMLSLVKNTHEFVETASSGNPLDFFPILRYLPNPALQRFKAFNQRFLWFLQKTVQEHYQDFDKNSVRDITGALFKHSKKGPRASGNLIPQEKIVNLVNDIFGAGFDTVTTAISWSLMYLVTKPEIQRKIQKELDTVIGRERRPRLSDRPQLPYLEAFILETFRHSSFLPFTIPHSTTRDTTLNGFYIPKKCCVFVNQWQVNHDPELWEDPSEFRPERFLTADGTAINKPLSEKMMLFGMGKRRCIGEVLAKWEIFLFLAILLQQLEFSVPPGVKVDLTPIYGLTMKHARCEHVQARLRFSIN
How it was run: as §2

CYP2D6 = CYP2D6 (Homo sapiens, UniProt P10635); test: CYP2D6 inhibition (fluorescent substrate); assay type: in vitro ADME; conditions: CYP2D6, AMMC substrate; read-out: Cyp IC50 2D6
How it was run: as §2

[2] = system: COLO205 colon adenocarcinoma cells (B-Raf V600E); test: COLO205 cell growth inhibition (ATPlite); assay type: cell-based; conditions: Homo sapiens, COLO 205, 72 h; COLO205, 3 days incubation
How it was run: as §1

Sequence of CYP2C19 (P33261 whole entry): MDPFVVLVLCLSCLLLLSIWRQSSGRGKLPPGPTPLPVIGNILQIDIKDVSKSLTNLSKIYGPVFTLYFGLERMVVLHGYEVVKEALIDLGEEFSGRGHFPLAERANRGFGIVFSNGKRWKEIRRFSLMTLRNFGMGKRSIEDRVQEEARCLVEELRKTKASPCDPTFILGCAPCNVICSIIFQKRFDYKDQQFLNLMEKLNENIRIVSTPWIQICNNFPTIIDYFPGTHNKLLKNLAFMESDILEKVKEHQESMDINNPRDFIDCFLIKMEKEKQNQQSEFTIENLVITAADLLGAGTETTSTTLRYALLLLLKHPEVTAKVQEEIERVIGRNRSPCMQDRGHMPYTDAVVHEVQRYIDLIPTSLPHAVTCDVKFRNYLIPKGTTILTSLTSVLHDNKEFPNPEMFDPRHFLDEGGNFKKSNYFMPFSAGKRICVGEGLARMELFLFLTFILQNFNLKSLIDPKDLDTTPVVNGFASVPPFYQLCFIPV
Sequence of CYP2D6 (P10635 whole entry): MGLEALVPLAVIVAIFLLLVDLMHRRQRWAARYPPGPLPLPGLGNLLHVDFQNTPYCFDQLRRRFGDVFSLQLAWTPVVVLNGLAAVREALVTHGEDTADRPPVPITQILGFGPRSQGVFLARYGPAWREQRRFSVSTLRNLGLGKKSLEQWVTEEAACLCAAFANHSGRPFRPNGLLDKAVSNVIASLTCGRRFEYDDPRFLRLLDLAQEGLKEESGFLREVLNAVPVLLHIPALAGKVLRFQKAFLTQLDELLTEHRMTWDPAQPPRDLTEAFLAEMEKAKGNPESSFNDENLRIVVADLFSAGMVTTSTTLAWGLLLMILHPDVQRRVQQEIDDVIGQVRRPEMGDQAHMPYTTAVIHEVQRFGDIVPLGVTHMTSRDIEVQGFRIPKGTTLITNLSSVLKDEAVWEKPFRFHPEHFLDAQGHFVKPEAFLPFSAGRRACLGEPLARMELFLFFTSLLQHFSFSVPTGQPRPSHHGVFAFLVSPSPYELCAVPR

Compound	pIC50 [1]	pIC50 (CYP2C19)	pIC50 (CYP1A2)	pIC50 (CYP2D6)	pIC50 [2]
CCCS(=O)(=O)Nc1ccc(F)c(C(=O)c2c[nH]c3ncc(-c4cnc(SC)nc4)cc23)c1F [P-2189, Propane-1-sulfonic acid {2,4-difluoro-3-[5-(2-methylsulfanyl-pyrimidin-5-yl)-1H-pyrrolo[2,3-b]pyridine-3-carbonyl]-phenyl}-amide]	> 6.00	5.00 to 5.30	< 5.00	< 5.00	> 6.00
CCCS(=O)(=O)Nc1ccc(F)c(C(=O)c2c[nH]c3ncc(-c4cnn(Cc5ccccc5)c4)cc23)c1F [P-2190, Propane-1-sulfonic acid {3-[5-(1-benzyl-1H-pyrazol-4-yl)-1H-pyrrolo[2,3-b]pyridine-3-carbonyl]-2,4-difluoro-phenyl}-amide]	> 6.00	5.00 to 5.30	< 5.00	< 5.00	> 6.00
CCCS(=O)(=O)Nc1ccc(F)c(C(=O)c2c[nH]c3ncc(-c4ccc(NC(C)=O)nc4)cc23)c1F [P-2193, N-(5-{3-[2,6-Difluoro-3-(propane-1-sulfonylamino)-benzoyl]-1H-pyrrolo[2,3-b]pyridin-5-yl}-pyridin-2-yl)-acetamide]	> 6.00	5.00 to 5.30	< 5.00	< 5.00	> 6.00
CCCS(=O)(=O)Nc1ccc(F)c(C(=O)c2c[nH]c3ncc(-c4cnc(N(C)C)nc4)cc23)c1F [P-2196, Propane-1-sulfonic acid {3-[5-(2-dimethylamino-pyrimidin-5-yl)-1H-pyrrolo[2,3-b]pyridine-3-carbonyl]-2,4-difluoro-phenyl}-amide]	> 6.00	< 5.00	< 5.00	< 5.00	> 6.00
CCCS(=O)(=O)Nc1ccc(F)c(C(=O)c2c[nH]c3ncc(-c4cnc(C)nc4)cc23)c1F [P-2211, Propane-1-sulfonic acid {2,4-difluoro-3-[5-(2-methyl-pyrimidin-5-yl)-1H-pyrrolo[2,3-b]pyridine-3-carbonyl]-phenyl}-amide]	> 6.00	5.00 to 5.30	< 5.00	< 5.00	> 6.00
CCCS(=O)(=O)Nc1ccc(F)c(C(=O)c2c[nH]c3ncc(-c4ccc(C)nc4)cc23)c1F [P-2213, Propane-1-sulfonic acid {2,4-difluoro-3-[5-(6-methyl-pyridin-3-yl)-1H-pyrrolo[2,3-b]pyridine-3-carbonyl]-phenyl}-amide]	> 6.00	< 5.00	< 5.00	< 5.00	> 6.00
CCCS(=O)(=O)Nc1ccc(F)c(C(=O)c2c[nH]c3ncc(-c4ccc(N)nc4)cc23)c1F [P-2214, Propane-1-sulfonic acid {3-[5-(6-amino-pyridin-3-yl)-1H-pyrrolo[2,3-b]pyridine-3-carbonyl]-2,4-difluoro-phenyl}-amide]	> 6.00	5.00 to 5.30	< 5.00	< 5.00	> 6.00
CCCS(=O)(=O)Nc1ccc(F)c(C(=O)c2c[nH]c3ncc(-c4cnc(N5CCCC5)nc4)cc23)c1F [P-2219, Propane-1-sulfonic acid {2,4-difluoro-3-[5-(2-pyrrolidin-1-yl-pyrimidin-5-yl)-1H-pyrrolo[2,3-b]pyridine-3-carbonyl]-phenyl}-amide]	> 7.00	> 5.30	< 5.00	< 5.00	> 7.00
CCCS(=O)(=O)Nc1ccc(F)c(C(=O)c2c[nH]c3ncc(-c4ccc(C#CCN(CC)CC)nc4)cc23)c1F [P-2222, Propane-1-sulfonic acid (3-{5-[6-(3-diethylamino-prop-1-ynyl)-pyridin-3-yl]-1H-pyrrolo[2,3-b]pyridine-3-carbonyl}-2,4-difluoro-phenyl)-amide]	> 7.00	> 5.30	< 5.00	5.00 to 5.30	> 7.00
CCCc1ccc(-c2cnc3[nH]cc(C(=O)c4c(F)ccc(NS(=O)(=O)CCC)c4F)c3c2)cn1 [P-2224, Propane-1-sulfonic acid {2,4-difluoro-3-[5-(6-propyl-pyridin-3-yl)-1H-pyrrolo[2,3-b]pyridine-3-carbonyl]-phenyl}-amide]	> 6.00	5.00 to 5.30	< 5.00	< 5.00	> 6.00
CCCS(=O)(=O)Nc1ccc(F)c(C(=O)c2c[nH]c3ncc(-c4ccc(CCCOC)nc4)cc23)c1F [P-2226, Propane-1-sulfonic acid (2,4-difluoro-3-{5-[6-(3-methoxy-propyl)-pyridin-3-yl]-1H-pyrrolo[2,3-b]pyridine-3-carbonyl}-phenyl)-amide]	> 7.00	< 5.00	< 5.00	< 5.00	> 7.00
CCCS(=O)(=O)Nc1ccc(F)c(C(=O)c2c[nH]c3ncc(-c4ccc(N5CCCC5)nc4)cc23)c1F [P-2231, Propane-1-sulfonic acid {2,4-difluoro-3-[5-(6-pyrrolidin-1-yl-pyridin-3-yl)-1H-pyrrolo[2,3-b]pyridine-3-carbonyl]-phenyl}-amide]	> 7.00	5.00 to 5.30	> 5.30	< 5.00	> 6.00
CCCS(=O)(=O)Nc1ccc(F)c(C(=O)c2c[nH]c3ncc(-c4ccc(OCCN5CCOCC5)nc4)cc23)c1F [P-2232, Propane-1-sulfonic acid (2,4-difluoro-3-{5-[6-(2-morpholin-4-yl-ethoxy)-pyridin-3-yl]-1H-pyrrolo[2,3-b]pyridine-3-carbonyl}-phenyl)-amide]	> 7.00	< 5.00	< 5.00	< 5.00	> 7.00
CCCS(=O)(=O)Nc1ccc(F)c(C(=O)c2c[nH]c3ncc(-c4ccc(OCCN5CCCC5)nc4)cc23)c1F [P-2233, Propane-1-sulfonic acid (2,4-difluoro-3-{5-[6-(2-pyrrolidin-1-yl-ethoxy)-pyridin-3-yl]-1H-pyrrolo[2,3-b]pyridine-3-carbonyl}-phenyl)-amide]	> 7.00	5.00 to 5.30	< 5.00	< 5.00	> 7.00
CCCS(=O)(=O)Nc1ccc(F)c(C(=O)c2c[nH]c3ncc(-c4ccc(OCCCN5CCCC5)nc4)cc23)c1F [P-2235, Propane-1-sulfonic acid (2,4-difluoro-3-{5-[6-(3-pyrrolidin-1-yl-propoxy)-pyridin-3-yl]-1H-pyrrolo[2,3-b]pyridine-3-carbonyl}-phenyl)-amide]	> 7.00	> 5.30	< 5.00	< 5.00	> 7.00
CCCS(=O)(=O)Nc1ccc(F)c(C(=O)c2c[nH]c3ncc(-c4ccc(OCCCN5CCOCC5)nc4)cc23)c1F [P-2236, Propane-1-sulfonic acid (2,4-difluoro-3-{5-[6-(3-morpholin-4-yl-propoxy)-pyridin-3-yl]-1H-pyrrolo[2,3-b]pyridine-3-carbonyl}-phenyl)-amide]	> 7.00	> 5.30	< 5.00	< 5.00	> 7.00
CCCS(=O)(=O)Nc1ccc(F)c(C(=O)c2c[nH]c3ncc(C#CCOC)cc23)c1F [P-2239, Propane-1-sulfonic acid {2,4-difluoro-3-[5-(3-methoxy-prop-1-ynyl)-1H-pyrrolo[2,3-b]pyridine-3-carbonyl]-phenyl}-amide]	> 6.00	5.00 to 5.30	< 5.00	< 5.00	> 6.00
C#Cc1cnc2[nH]cc(C(=O)c3c(F)ccc(NS(=O)(=O)CCC)c3F)c2c1 [P-2260, Propane-1-sulfonic acid [3-(5-ethynyl-1H-pyrrolo[2,3-b]pyridine-3-carbonyl)-2,4-difluoro-phenyl]-amide]	> 6.00	5.00 to 5.30	< 5.00	< 5.00	> 6.00
CCCS(=O)(=O)Nc1cccc(C(=O)c2c[nH]c3ncc(-c4cnc(OC)nc4)cc23)c1F [P-2407, Propane-1-sulfonic acid {2-fluoro-3-[5-(2-methoxy-pyrimidin-5-yl)-1H-pyrrolo[2,3-b]pyridine-3-carbonyl]-phenyl}-amide]	> 6.00	> 5.30	< 5.00	< 5.00	> 6.00
CCCS(=O)(=O)Nc1cccc(C(=O)c2c[nH]c3ncc(-c4cnc(N(C)C)nc4)cc23)c1F [P-2408, Propane-1-sulfonic acid {3-[5-(2-dimethylamino-pyrimidin-5-yl)-1H-pyrrolo[2,3-b]pyridine-3-carbonyl]-2-fluoro-phenyl}-amide]	> 7.00	< 5.00	< 5.00	< 5.00	> 6.00
